Each structure is given as a SMILES string. Where two headings read alike, the source gives them in different places.

A short description of data set [1]: Aqueous solubility assay in Normal Ringer Solution. The conditions noted are these: Normal Ringer Solution, saline or isotonic, kinetic from dmso stock. The method, then:
Following vortex and incubation for a sufficient time (e.g. 40 minutes at room temperature), solutions were filtered, quenched with acetonitrile, and analyzed by Liquid Chromotography. Solubility Limits were determined by comparison to a standard curve.

Data set [2] concerns the target human hERG channels (Homo sapiens (Human), UniProt Q12809). Kind of data set: hERG assay (patch clamp, CHO cells). In kind it is cell-based.
Data set [3] can be described thus: Metabolic Stability assay, human liver microsomes. Type of data set: in vitro ADME. The conditions noted are these: read-out: LM T1/2 (min) human. The method, then: Metabolic Stability assay: The metabolic stability was determined by adding compound dissolved in DMSO to human or rat, liver microsomes. Briefly, assays were run with a starting concentration of 1 μM test article. The reaction was started by addition of NADPH regeneration components at 37° C. at which time an aliquot was immediately quenched in ice-cold acetonitrile/MeOH/H2O solution. Reaction mixture was incubated at 37° C. on a shaker, and additional aliquots were taken at 7, 15, 30 and 60 minutes. Following quench and centrifugation, samples were analyzed on HPLC/MS/MS.

Data set [4] addresses hTRPV3 (Homo sapiens (Human), UniProt Q8NET8). Nature of the data set: Whole-cell patch clamp, hTRPV3 Phase 1 / Phase 2 currents. In kind it is cell-based. The conditions noted are these: Phase 1 current. The essentials: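 Whole-cell recordings on induced TRPV3 cells replated on coverslips, held at −40 mV with 400 ms ramps from −120 to +100 mV every 5 s; currents read at −80 and +80 mV. Ringer's external solution; current activated by heating to ≥28 °C or 20 μM 2-APB.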
(In general: In patch-clamp work, channel activity is measured electrically.)

The nature of data set [5]: Metabolic Stability assay, rat liver microsomes. Type of data set: in vitro ADME. The conditions noted are these: read-out: LM T1/2 (min) rat. The essentials:
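Test article at 1 μM starting concentration incubated with human or rat liver microsomes at 37 °C, with the reaction started by NADPH regeneration components. Aliquots were quenched in cold acetonitrile/MeOH/H2O at 0, 7, 15, 30 and 60 min and analysed by HPLC/MS/MS.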
On the technique in general: Microsomes from liver hold many membrane-bound enzymes, among them those of drug oxidation.

Data set [6] concerns the target rat (r) TRPV3 (Rattus norvegicus, UniProt E9PU00). Kind of data set: Whole-cell patch clamp, rTRPV3 Phase 1 / Phase 2 currents. Type of data set: cell-based. The conditions noted are these: rTRPV3 (nM) Phase 1, Phase 1 current, rat TRPV3. An excerpt: Whole-cell patch clamp experiments permit the detection of currents through the TRPV3 channel in the cell line described above. A glass electrode is brought into contact with a single cell and the membrane is then ruptured, permitting control of the voltage of the cell membrane and measurement of currents flowing across the membrane using the amplifier attached to the electrode. A perfusion system permits control of the extracellular solution, including the addition of blockers and activators of the current. The current can be activated by heating this solution to 28° C. or warmer or by addition of 20 μM 2-APB to the solution.
TRPV3 cells were induced 20-48 hours, removed from growth plates, and replated at low density (to attain good single-cell physical separation) on glass coverslips for measurement. In some cases, cells were grown in low density overnight on glass coverslips. Patch clamp recordings were made in the whole-cell mode with a holding potential of −40 mV. Every 5 seconds, a voltage ramp was applied from −120 to +100 mV, 400 ms in duration. Currents elicited were quantified at −80 mV and +80 mV. The internal solution consisted of 140 mM cesium aspartate, 10 mM EGTA, 2.27 mM MgCl2, 1.91 mM CaCl2) and 10 mM HEPES, pH to 7.2 with KOH; with 50 nM calculated free […]. External solution was Ringer's solution described above. Upon addition of 2-APB or upon heating of the extraceullar solution as described above, TRPV3 current was induced only in TRPV3-expressing cells and not in parental HEK293 TREx cells. […] Removal of the stimulus caused most of the current to go away, and inhibitor addition could still inhibit this current.
In Tables 3 and 4, Phase 1 refers to Phase 1 current for human (h) TRPV3 or rat (r) TRPV3, and Phase 2 refers to Phase 2 current for human (h) TRPV3 or rat (r) TRPV3. The hTRPV3 and rTRPV3 assays were performed as described herein. hERG refers to the inhibition the human ERG (hERG) channel. NaV1.5, refers to the pore forming aL-subunit of the voltage-dependent cardiac Na(+) channel and is an integral membrane protein involved in the initiation and conduction of action potentials. hTRPV3 HAMA IC50 refers to the IC50 of TRPV3 cells stably expressed in TRex-293 cells. Solubility Ringer refers to the compounds' solubility in Ringer's solution. LM T1/2 refers to liver microsome half-lives in either rat or human liver microsomes. FLIPR IC50 refers to the IC50 of the test compounds against recombinant hTRPV3 cells.

Data set [7] concerns male C57BL/6J mice, AEW induced pruritus. Nature of the data set: Acetone-ether-water (AEW) induced pruritus model in mice. The following applies: HC-030031 4 mg/mouse SC 5 min before recording; P=0.0005 vs Vehicle2.
The subject of data set [8] is DS-Nh mice (TRPV3 Gly573Ser gain-of-function mutation). Nature of the data set: Efficacy of KM-001 in DS-Nh mouse model (skin histology, dermatitis scoring). The conditions noted are these: topical ointment on cheek, Day 14, KM-001 1% and 0.3%, Tacrolimus 0.1%.
Protocol: Mice were identified by left ear punch. […] On Day −30, −23, −20, −14, −9, −2, 0, 3, 7, 10, 14, erythema and edema of the mice face have been scored on the right and left sides according to criteria in table 21 (Dermatitis scoring criteria).
The viability, clinical signs and behavior were monitored daily. Body weight was recorded daily. […] Mice were monitored just and 7 hours after administration. Animals in all groups were sacrificed at Day 14 by exsanguination through abdominal vena cava under isoflurane.
For skin samples, the skin at the inflammation site from both cheeks of the face were collected. For histological analyses, the skin was fixed in 4% paraformaldehyde for 24 hours. After fixation, these specimens were processed to paraffin embedding for H&E staining, MT staining and immunohistochemistry and toluidine blue staining.
Skin sections taken from facial treated area of each mouse are fixed in paraffin and stained with Hematoxylin & Eosin.
The mark [9] stands for this setting: human TRPV3, read-out: hTRPV3 (nM) Phase 1.
Setting [10] is: inward, whole-cell patch clamp, read-out: hTRPV3 Patch P1 Inwd.

Sequence of human hERG channels (Q12809 whole entry): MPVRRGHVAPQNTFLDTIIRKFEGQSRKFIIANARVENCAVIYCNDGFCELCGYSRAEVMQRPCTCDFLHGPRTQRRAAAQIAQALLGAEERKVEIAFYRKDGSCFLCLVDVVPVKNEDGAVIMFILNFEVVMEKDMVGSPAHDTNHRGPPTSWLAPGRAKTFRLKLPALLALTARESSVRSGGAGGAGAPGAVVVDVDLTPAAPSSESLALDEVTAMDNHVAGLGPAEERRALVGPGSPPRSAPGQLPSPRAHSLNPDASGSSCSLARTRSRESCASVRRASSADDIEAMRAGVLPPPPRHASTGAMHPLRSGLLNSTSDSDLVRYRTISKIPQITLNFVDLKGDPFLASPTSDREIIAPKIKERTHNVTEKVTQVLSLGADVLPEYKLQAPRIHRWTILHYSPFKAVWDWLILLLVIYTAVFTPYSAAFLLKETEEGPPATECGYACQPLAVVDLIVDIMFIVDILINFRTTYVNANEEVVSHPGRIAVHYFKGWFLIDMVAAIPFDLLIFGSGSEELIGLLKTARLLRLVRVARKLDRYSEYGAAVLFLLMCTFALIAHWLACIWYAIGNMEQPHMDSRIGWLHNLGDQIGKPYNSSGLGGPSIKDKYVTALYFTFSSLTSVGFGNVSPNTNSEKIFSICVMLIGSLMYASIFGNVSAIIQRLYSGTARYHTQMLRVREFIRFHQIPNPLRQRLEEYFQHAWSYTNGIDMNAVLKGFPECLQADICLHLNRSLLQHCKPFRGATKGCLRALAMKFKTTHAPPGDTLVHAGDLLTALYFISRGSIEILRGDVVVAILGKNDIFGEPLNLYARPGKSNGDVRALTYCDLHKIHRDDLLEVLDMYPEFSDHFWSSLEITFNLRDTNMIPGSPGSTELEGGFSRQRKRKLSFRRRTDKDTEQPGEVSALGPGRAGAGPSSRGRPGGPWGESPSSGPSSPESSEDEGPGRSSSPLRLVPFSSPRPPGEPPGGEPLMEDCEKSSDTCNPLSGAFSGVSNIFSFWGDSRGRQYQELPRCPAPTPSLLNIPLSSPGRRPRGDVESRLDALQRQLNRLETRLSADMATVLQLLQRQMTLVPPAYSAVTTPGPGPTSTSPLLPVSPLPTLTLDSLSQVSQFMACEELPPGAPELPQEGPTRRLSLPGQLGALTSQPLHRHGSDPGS
Sequence of hTRPV3 (Q8NET8 whole entry): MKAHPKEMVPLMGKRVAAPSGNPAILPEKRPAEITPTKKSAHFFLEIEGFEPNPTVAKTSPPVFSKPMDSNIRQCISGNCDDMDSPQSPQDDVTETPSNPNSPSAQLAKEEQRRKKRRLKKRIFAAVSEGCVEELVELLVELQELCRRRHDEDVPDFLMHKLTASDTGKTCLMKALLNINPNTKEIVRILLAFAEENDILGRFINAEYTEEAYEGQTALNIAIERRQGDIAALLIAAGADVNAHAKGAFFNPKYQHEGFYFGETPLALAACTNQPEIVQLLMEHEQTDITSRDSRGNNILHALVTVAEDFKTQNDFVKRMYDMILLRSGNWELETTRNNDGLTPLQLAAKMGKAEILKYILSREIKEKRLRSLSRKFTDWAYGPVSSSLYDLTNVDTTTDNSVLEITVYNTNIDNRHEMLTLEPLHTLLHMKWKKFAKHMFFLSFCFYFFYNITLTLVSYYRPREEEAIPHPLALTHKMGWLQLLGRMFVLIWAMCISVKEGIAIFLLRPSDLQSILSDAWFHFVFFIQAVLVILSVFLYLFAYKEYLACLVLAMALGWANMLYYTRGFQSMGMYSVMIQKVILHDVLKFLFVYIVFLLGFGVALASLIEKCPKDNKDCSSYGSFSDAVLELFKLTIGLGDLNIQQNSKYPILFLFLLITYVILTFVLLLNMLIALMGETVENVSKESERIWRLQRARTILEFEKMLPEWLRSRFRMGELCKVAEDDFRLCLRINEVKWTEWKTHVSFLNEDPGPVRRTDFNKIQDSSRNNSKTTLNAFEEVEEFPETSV
Sequence of rat (r) TRPV3 (E9PU00 1-791): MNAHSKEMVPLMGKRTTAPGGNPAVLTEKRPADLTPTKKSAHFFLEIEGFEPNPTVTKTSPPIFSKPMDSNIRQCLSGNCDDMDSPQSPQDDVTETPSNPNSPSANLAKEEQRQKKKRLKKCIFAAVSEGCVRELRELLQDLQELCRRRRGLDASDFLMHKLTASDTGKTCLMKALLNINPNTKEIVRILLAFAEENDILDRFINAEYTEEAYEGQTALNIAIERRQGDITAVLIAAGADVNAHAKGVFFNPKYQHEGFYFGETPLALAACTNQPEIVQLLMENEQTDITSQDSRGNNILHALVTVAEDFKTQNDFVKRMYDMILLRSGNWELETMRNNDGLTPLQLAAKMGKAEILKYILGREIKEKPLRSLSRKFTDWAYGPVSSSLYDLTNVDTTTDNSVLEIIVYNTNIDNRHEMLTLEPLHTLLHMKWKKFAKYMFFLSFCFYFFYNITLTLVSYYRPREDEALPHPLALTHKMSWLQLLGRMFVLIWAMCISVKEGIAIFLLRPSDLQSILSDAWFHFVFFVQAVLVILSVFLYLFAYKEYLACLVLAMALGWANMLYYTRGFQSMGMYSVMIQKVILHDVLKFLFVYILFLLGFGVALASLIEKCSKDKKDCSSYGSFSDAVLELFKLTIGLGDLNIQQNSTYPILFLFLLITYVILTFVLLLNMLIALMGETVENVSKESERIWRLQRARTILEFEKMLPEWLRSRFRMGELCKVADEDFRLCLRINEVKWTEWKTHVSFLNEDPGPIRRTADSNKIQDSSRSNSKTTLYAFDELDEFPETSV

For orientation: solubility means the concentration that dissolves in the medium under given conditions. `CC(C)c1ccccc1-c1ccc(C2CCN(C(=O)c3ccc(F)cn3)C2)c(CO)c1` (centres unmarked) [Compound 2-29, (5-fluoropyridin-2-yl)(3-(3-(hydroxymethyl)-2′-isopropylbiphenyl-4-yl)pyrrolidin-1-yl)methanone] gave a solubility at 40 min in data set [1] of more than 16.6 µM. In addition, the IC50 in data set [2] ((M), read-out: hERG) is 7.38e-06 M; in data set [2] ((PL), read-out: hERG (nM) (PL)), 7.48e-06 M; in data set [4] (setting [9]), 6.03 nM; in data set [4] (setting [10]), less than 10 nM; in data set [6], 5.56 nM. Also, the half-life at 1 μM in data set [3] is 8.8 min; in data set [5], 16.8 min.
Consider `CCc1cc(C)ccc1-c1ccc(C2CCN(C(=O)c3ccc(F)cn3)C2)c(CO)c1` (centres unmarked) [Compound 2-62, (3-(2′-ethyl-3-(hydroxymethyl)-4′-methylbiphenyl-4-yl)pyrrolidin-1-yl)(5-fluoropyridin-2-yl)methanone], for which the solubility at 40 min in data set [1] is more than 12.1 µM. Further, the IC50 was 1.77e-05 M in data set [2] ((PL), read-out: hERG (nM) (PL)); 64.9 nM in data set [4] (setting [9]); 10 to 100 nM in data set [4] (setting [10]). In addition, the half-life at 1 μM in data set [3] is 14.9 min; in data set [5] it was 14 min.
Regarding `CC(C)c1ccc(NC(=O)Cn2cnc3c2c(=O)n(C)c(=O)n3C)cc1` [HC-030031], in data set [7], the scratching bouts result is “significantly decreased” and the scratching time entry was “significantly decreased”.
For `C=CC[C@@H]1/C=C(\C)C[C@H](C)C[C@H](OC)[C@H]2O[C@@](O)(C(=O)C(=O)N3CCCC[C@H]3C(=O)O[C@H](/C(C)=C/[C@@H]3CC[C@@H](O)[C@H](OC)C3)[C@H](C)[C@@H](O)CC1=O)[C@H](C)C[C@@H]2OC` [Tacrolimus, reference compound], the “Skin pathology (H&E histology: epidermis, inflammation)” value in data set [8] was “only slightly improved skin pathology”.

The values above are taken from patent publication US12435061B2 (priority 2020, dated 2025).
